Experimental data from patent US4378344A, “Method and apparatus for performing multiple, simultaneous in vitro diagnostic tests using a solid phase system” (priority 1979, dated 1983).
Like-named read-outs stand apart in the source and are kept apart here.

Legend:
[1] = tested on: anti-T4; assay: simultaneous assay: 125I-thyroxin bound to anti-T4 coated stick (Example 6); format: binding, rabbit
Experimental: (§1) Digoxin and thyroxin were utilized as the antigens. 1.1 ml of 0.01 M PBS at pH 7.4 and also containing 5 mg/ml thimersol was added to the appropriate tubes. 50 μl of a digoxin solution and 50 μl of a T4 solution were added to each tube.
(§2) The following series of assays were conducted.
(B) uncoated tube and anti-T4 coated stick
(§3) (D) anti-digoxin coated tube and anti-T4 coated stick.
(§4) The remainder of the values are based on these two values.

[2] = tested on: anti-T4; assay: simultaneous assay in clinical serum sample: 125I-thyroxin bound to anti-T4 coated stick (Example 7); format: binding, rabbit
[3] = tested on: anti-digoxin; assay: simultaneous assay: 125I-digoxin bound to anti-digoxin coated tube (Example 6); format: binding, rabbit
Experimental: as §1, §2
(A) anti-digoxin coated tube;
(C) anti-digoxin coated tube and uncoated stick; and,
as §3, §4

[4] = tested on: anti-digoxin; settings: clinical sample
Experimental: The same series of assays were conducted as described in Example 6 and expressed in the same manner.

`N[C@@H](Cc1cc(I)c(Oc2cc(I)c(O)c(I)c2)c(I)c1)C(=O)O` [T4, thyroxin] was tested, and the “T4 binding to the anti-T4 coated stick” value ([1]; when an anti-digoxin coated tube is also present) was “no significant difference” and the “T4 binding to the anti-T4 coated stick” value ([1]; when digoxin, 125I-digoxin or both are present) was “no significant difference”.

For `N[C@@H](Cc1cc(I)c(Oc2cc(I)c(O)c([125I])c2)c(I)c1)C(=O)O` [^125 I-T4, ^125 I-Thyroxin], the “% ^125 I-Thyroxin Bound” value ([1]; stick 2 (digoxin 0, T4 0 ng/ml; no 125I-digoxin), series B, uncoated tube, set as 100%) was 100%, the “% ^125 I-Thyroxin Bound” value ([1]; stick 2 (digoxin 0, T4 0 ng/ml; no 125I-digoxin), series D, anti-digoxin tube) was 96% and the “% ^125 I-Thyroxin Bound” value ([1]; stick 3 (digoxin 0, T4 0 ng/ml; with 125I-digoxin), series B, uncoated tube) was 106%. The “% ^125 I-Thyroxin Bound” value ([1]; stick 3 (digoxin 0, T4 0 ng/ml; with 125I-digoxin), series D, anti-digoxin tube) was 106%, the “% ^125 I-Thyroxin Bound” value ([1]; stick 5 (digoxin 0, T4 30 ng/ml; no 125I-digoxin), series B, uncoated tube) was 81% and the “% ^125 I-Thyroxin Bound” value ([1]; stick 5 (digoxin 0, T4 30 ng/ml; no 125I-digoxin), series D, anti-digoxin tube) was 79%. For the same compound, the “% ^125 I-Thyroxin Bound” value ([1]; stick 6 (digoxin 0, T4 30 ng/ml; with 125I-digoxin), series B, uncoated tube) was 92%, the “% ^125 I-Thyroxin Bound” value ([1]; stick 6 (digoxin 0, T4 30 ng/ml; with 125I-digoxin), series D, anti-digoxin tube) was 95% and the “% ^125 I-Thyroxin Bound” value ([1]; stick 8 (digoxin 4, T4 0 ng/ml; no 125I-digoxin), series B, uncoated tube) was 101%. For the same compound, the “% ^125 I-Thyroxin Bound” value ([1]; stick 8 (digoxin 4, T4 0 ng/ml; no 125I-digoxin), series D, anti-digoxin tube) was 100%, the “% ^125 I-Thyroxin Bound” value ([1]; stick 9 (digoxin 4, T4 0 ng/ml; with 125I-digoxin), series B, uncoated tube) was 113% and the “% ^125 I-Thyroxin Bound” value ([1]; stick 9 (digoxin 4, T4 0 ng/ml; with 125I-digoxin), series D, anti-digoxin tube) was 108%. For the same compound, the “% ^125 I-Thyroxin Bound” value ([1]; stick 11 (digoxin 4, T4 30 ng/ml; no 125I-digoxin), series B, uncoated tube) was 82%, the “% ^125 I-Thyroxin Bound” value ([1]; stick 11 (digoxin 4, T4 30 ng/ml; no 125I-digoxin), series D, anti-digoxin tube) was 81% and the “% ^125 I-Thyroxin Bound” value ([1]; stick 12 (digoxin 4, T4 30 ng/ml; with 125I-digoxin), series B, uncoated tube) was 92%. The “% ^125 I-Thyroxin Bound” value ([1]; stick 12 (digoxin 4, T4 30 ng/ml; with 125I-digoxin), series D, anti-digoxin tube) was 89%, the “% ^125 I-Thyroxin Bound” value ([2]; stick 2 (no 125I-digoxin), series B, uncoated tube, set as 100%) was 100% and the “% ^125 I-Thyroxin Bound” value ([2]; stick 2 (no 125I-digoxin), series D, anti-digoxin tube) was 102%. The “% ^125 I-Thyroxin Bound” value ([2]; stick 3 (with 125I-digoxin), series B, uncoated tube) was 146% and the “% ^125 I-Thyroxin Bound” value ([2]; stick 3 (with 125I-digoxin), series D, anti-digoxin tube) was 143%.

In the case of `C[C@H]1O[C@@H](O[C@H]2[C@@H](O)C[C@H](O[C@H]3[C@@H](O)C[C@H](O[C@H]4CC[C@@]5(C)[C@H](CC[C@@H]6[C@@H]5C[C@@H](O)[C@]5(C)[C@@H](C7=CC(=O)OC7)CC[C@]65O)C4)O[C@@H]3C)O[C@@H]2C)C[C@H](O)[C@@H]1O` [digoxin], the “digoxin binding to the anti-digoxin coated tube” value ([3]; when T4, 125I-T4 or both are present) is reported as “no significant difference” and the “digoxin binding to the anti-digoxin coated tube” value ([3]; when an uncoated stick or an anti-T4 coated stick is also present) is reported as “no significant difference”.

^125 I-Digoxin was tested, and the “% ^125 I-Digoxin Bound” value ([4]; tube 1 (no 125I-T4), series A, no stick, set as 100%) was 100%, the “% ^125 I-Digoxin Bound” value ([4]; tube 1 (no 125I-T4), series C, uncoated stick) was 95% and the “% ^125 I-Digoxin Bound” value ([4]; tube 1 (no 125I-T4), series D, anti-T4 stick) was 114%. For the same compound, the “% ^125 I-Digoxin Bound” value ([4]; tube 3 (with 125I-T4), series A, no stick) was 98%, the “% ^125 I-Digoxin Bound” value ([4]; tube 3 (with 125I-T4), series C, uncoated stick) was 135% and the “% ^125 I-Digoxin Bound” value ([4]; tube 3 (with 125I-T4), series D, anti-T4 stick) was 116%. For the same compound, the “% ^125 I-Digoxin Bound” value ([3]; tube 1 (digoxin 0, T4 0 ng/ml; no 125I-T4), series A, no stick, set as 100%) was 100%, the “% ^125 I-Digoxin Bound” value ([3]; tube 1 (digoxin 0, T4 0 ng/ml; no 125I-T4), series C, uncoated stick) was 118% and the “% ^125 I-Digoxin Bound” value ([3]; tube 1 (digoxin 0, T4 0 ng/ml; no 125I-T4), series D, anti-T4 stick) was 126%. For the same compound, the “% ^125 I-Digoxin Bound” value ([3]; tube 3 (digoxin 0, T4 0 ng/ml; with 125I-T4), series A, no stick) was 98%, the “% ^125 I-Digoxin Bound” value ([3]; tube 3 (digoxin 0, T4 0 ng/ml; with 125I-T4), series C, uncoated stick) was 109% and the “% ^125 I-Digoxin Bound” value ([3]; tube 3 (digoxin 0, T4 0 ng/ml; with 125I-T4), series D, anti-T4 stick) was 121%. The “% ^125 I-Digoxin Bound” value ([3]; tube 4 (digoxin 0, T4 30 ng/ml; no 125I-T4), series A, no stick) was 97%, the “% ^125 I-Digoxin Bound” value ([3]; tube 4 (digoxin 0, T4 30 ng/ml; no 125I-T4), series C, uncoated stick) was 111% and the “% ^125 I-Digoxin Bound” value ([3]; tube 4 (digoxin 0, T4 30 ng/ml; no 125I-T4), series D, anti-T4 stick) was 109%. The “% ^125 I-Digoxin Bound” value ([3]; tube 6 (digoxin 0, T4 30 ng/ml; with 125I-T4), series A, no stick) was 100%, the “% ^125 I-Digoxin Bound” value ([3]; tube 6 (digoxin 0, T4 30 ng/ml; with 125I-T4), series C, uncoated stick) was 104% and the “% ^125 I-Digoxin Bound” value ([3]; tube 6 (digoxin 0, T4 30 ng/ml; with 125I-T4), series D, anti-T4 stick) was 110%. The “% ^125 I-Digoxin Bound” value ([3]; tube 7 (digoxin 4, T4 0 ng/ml; no 125I-T4), series A, no stick) was 66%, the “% ^125 I-Digoxin Bound” value ([3]; tube 7 (digoxin 4, T4 0 ng/ml; no 125I-T4), series C, uncoated stick) was 76% and the “% ^125 I-Digoxin Bound” value ([3]; tube 7 (digoxin 4, T4 0 ng/ml; no 125I-T4), series D, anti-T4 stick) was 68%. For the same compound, the “% ^125 I-Digoxin Bound” value ([3]; tube 9 (digoxin 4, T4 0 ng/ml; with 125I-T4), series A, no stick) was 69%, the “% ^125 I-Digoxin Bound” value ([3]; tube 9 (digoxin 4, T4 0 ng/ml; with 125I-T4), series C, uncoated stick) was 77% and the “% ^125 I-Digoxin Bound” value ([3]; tube 9 (digoxin 4, T4 0 ng/ml; with 125I-T4), series D, anti-T4 stick) was 70%. The “% ^125 I-Digoxin Bound” value ([3]; tube 10 (digoxin 4, T4 30 ng/ml; no 125I-T4), series A, no stick) was 62%, the “% ^125 I-Digoxin Bound” value ([3]; tube 10 (digoxin 4, T4 30 ng/ml; no 125I-T4), series C, uncoated stick) was 76% and the “% ^125 I-Digoxin Bound” value ([3]; tube 10 (digoxin 4, T4 30 ng/ml; no 125I-T4), series D, anti-T4 stick) was 69%. The “% ^125 I-Digoxin Bound” value ([3]; tube 12 (digoxin 4, T4 30 ng/ml; with 125I-T4), series A, no stick) was 63%, the “% ^125 I-Digoxin Bound” value ([3]; tube 12 (digoxin 4, T4 30 ng/ml; with 125I-T4), series C, uncoated stick) was 73% and the “% ^125 I-Digoxin Bound” value ([3]; tube 12 (digoxin 4, T4 30 ng/ml; with 125I-T4), series D, anti-T4 stick) was 68%.
